Results as given in US20110165601A1, “ASSAY SYSTEM” (THE UNIVERSITY COURT OF THE UNIVERSITY GLASGOW, priority 2006, published 2011).

How the values were obtained:
[1] = target: T1, SR Ca2+ ATPase (SERCA) (Oryctolagus cuniculus, UniProt P20647); assay: SR uptake assay in permeabilised cell preparations; assay type: cell-based, rabbit; conditions: FIG. 1C
T1 construct: The atria were removed and discarded whereas the right and left ventricle was kept for experiments; endogenous in cells; host or cells: isolated rabbit ventricular cardiomyocytes, beta-escin permeabilised, frozen and thawed
Experimental: As indicated above the figure, Ca^2+ was added to increase the [Ca^2+] within the aggregate to ˜1.5 μM. No Ca^2+ uptake occurs due to the absence of Mg^2+ (and therefore MgATP). Addition of Me starts the reaction. The initial increase of [Ca^2+] is caused by displacement of Ca^2+ from ATP.
Aliquots of cells are defrosted gradually with the addition of 9 volumes of S1 solution. This was followed by addition of CaCl2 to increase the free [Ca^2+] to ˜1.5 μM (˜100 μM total Ca^2+). The mixture can then be distributed into the 96 or high format arrays. Incubation of the preparation with the compound of interest can occur for 15-20 mins and the SR uptake reaction began by addition of 5.5 mM MgCl2 (with stirring). This provides the substrate (MgATP) to allow SR uptake of Ca^2+. There are two options for measurement: (i) follow the time course of the Ca^2+ uptake profile in detail by measuring every 1-2 s for up to 10 mins (ii) measuring the Ca^2+ concentration at a set time (e.g. 10 mins) after initiation of the reaction. […] These effects can be monitored in detail (option (i)—see FIG. 1 and description thereof for an example) or by simply measuring Fluo-3 fluorescence at one time point (option (ii)).

[2] = tested on: myocytes; assay: Trypan blue assay (access of dye into myocytes); assay type: cell-based, rabbit
Text: (§1) The following description illustrates two methods which were used to test permeabilisation of rabbit myocytes by a batch of beta-escin, and to compare two different commercial batches of saponin.
(§2) The haemocytometer method of cell counting was used to count the number of non-permeable myocytes before and after application of the permeabilising agent (either saponin or β-Escin). Freshly dissociated cardiac muscle cells were obtained in a solution of low calcium. These were filtered and transferred into two 13.5 ml test tubes. Each was centrifuged for approximately 12 seconds at 5 g and the supernatant was discarded. Approximately 4.5 ml of EGTA solution was used to re-suspend the pellet in each tube. The contents of both were combined to form the stock suspension.
Access of the vital dye Trypan blue (MW: 950 approx.) into myocytes was used to evaluate permeabilisation by Saponin (Calbiochem brand) or β-escin. Permeabilised myocytes were identified by positive staining (blue colour) of the cell contents. Cells with intact membranes excluded the dye and it was this population that was counted.
For each run utilising the trypan blue assay, eight 13.5 ml test tubes were obtained. Each was labelled control 1, control 2, 0.1, 1, 10, 100, 1000 or 10000.
The cell stock suspension was agitated to ensure uniform distribution of cells and exactly 1 ml was pipetted into each tube. These were then transferred to the fridge to prevent degradation of the cells. Each tube was put through the following protocol in turn. The required volume of permeabilising agent was added (see Table 2) and a stopclock was started.
Once the incubation time had elapsed the tube was centrifuged for approximately 12 seconds at 5 g and the supernatant was withdrawn. The pellet was re-suspended in 0.5 mls of EGTA solution and 0.5 mls of 0.5% Trypan blue (BDH Laboratory Supplies, Poole, England) in 5 mM EGTA, which had been previously gently heated to ensure that the dye was dissolved. The tube was agitated and cell density determined by hamocytometer counting.
The protocol was followed for all concentrations under investigation; for the two controls no permeabilising agent was added and thus no incubation step was required.
(§3) Graphs were plotted and non-linear logistic curves were fitted using least squares technique by the Microcal™ Origin™ package (version 5.0, Microcal Software Inc.). ED50 values and their associated errors were also estimated using this software. Analysis of variance (ANOVA) using Tukey's post-test comparison was used to verify significance between ED50 values (GraphPad InStat™, GraphPad Software, V2.05a).

[3] = tested on: myocytes; assay: Ca2+-contraction assay (rod count by haemocytometer); assay type: cell-based, rabbit
Text: as §1, §2
Physiologically, myofilaments are activated by a rapid increase in the cytosolic Ca^2+ concentration from 0.1 μM to approximately 2 μM which occurs mainly due to Ca^2+ release from the SR (Levick, 2000). The Ca^2+-contraction assay used in this investigation relies upon the fact that cells with permeabilised membranes allow free access of Ca^2+ to the cytosol when exposed to high extracellular Ca^2+ concentrations. This activates the myofilaments of the cell causing it to contract into a ball. Non-permeabilised myocytes retain their characteristic rod shape. The effects of permeabilising agents on the cell population were quantified by counting the proportion of rod-shaped cells.
On each run utilising the Ca^2+-contraction assay, sixteen 13.5 ml test tubes were obtained. Eight of these were labelled “EGTA” whilst the remaining eight were labelled “CaEGTA”. Within both sets of eight, individual tubes were labelled control 1, control 2, 0.01, 0.1, 1, 10, 100 and 1000.
The cell stock suspension was agitated to ensure uniform distribution of cells and exactly 1 ml was pipetted into each tube labelled “EGTA”. These tubes were then transferred to the fridge to prevent degradation of the cells.
Each tube was put through the following protocol in turn. The required volume of permeabilising agent was added (see Table 2) and a stopclock was started. During the two minute incubation time, exactly 0.5 mls of the contents of the “EGTA” tube was withdrawn using a pipette and transferred to the corresponding “CaEGTA” tube.
Once the incubation time had elapsed the tubes were centrifuged for approximately 12 seconds at 5 g and the supernatant was withdrawn. The “EGTA” pellet was re-suspended in 0.5 mls of EGTA solution and the “CaEGTA” pellet in 0.5 mls of CeEGTA solution. Both tubes were agitated and the cell density determined by haemocytometer. The protocol was followed for all concentrations under investigation; for the two controls no permeabilising agent was added and thus no incubation step was required.
The effect of exposing myocytes to exceedingly high concentrations of permeabilising agent ([…]) was investigated for both β-Escin and saponin. The protocol followed was the same as the Ca^2+-contraction assay protocol (described above). 100 μl of the 100 mg/ml stock was added to the 1 ml suspension volume to achieve the required concentration (see Table 2). A control plus a low concentration of agent (1 μg/ml) were also studied to validate results.
The concentrations investigated were 1, 10, 100 and 1000 μg/ml for each saponin plus two controls. The experimental protocol followed was the same as for the Ca^2+-contraction assay method above.
as §3

[4] = tested on: cardiac myocytes; assay: Permeabilisation of a sample of cardiac myocytes; assay type: cell-based; conditions: at 1 mg/ml
[5] = target: T2, ryanodine receptor (Oryctolagus cuniculus, UniProt P30957); assay: SR Ca2+ release assay (Ca2+ leak from permeabilised cell aggregates); assay type: cell-based, rabbit; conditions: after 40 mM caffeine, FIG. 2
T2 construct: The atria were removed and discarded whereas the right and left ventricle was kept for experiments; endogenous in cells; host or cells: isolated rabbit ventricular cardiomyocytes, beta-escin permeabilised, frozen and thawed
T2 sequence (P30957 whole entry): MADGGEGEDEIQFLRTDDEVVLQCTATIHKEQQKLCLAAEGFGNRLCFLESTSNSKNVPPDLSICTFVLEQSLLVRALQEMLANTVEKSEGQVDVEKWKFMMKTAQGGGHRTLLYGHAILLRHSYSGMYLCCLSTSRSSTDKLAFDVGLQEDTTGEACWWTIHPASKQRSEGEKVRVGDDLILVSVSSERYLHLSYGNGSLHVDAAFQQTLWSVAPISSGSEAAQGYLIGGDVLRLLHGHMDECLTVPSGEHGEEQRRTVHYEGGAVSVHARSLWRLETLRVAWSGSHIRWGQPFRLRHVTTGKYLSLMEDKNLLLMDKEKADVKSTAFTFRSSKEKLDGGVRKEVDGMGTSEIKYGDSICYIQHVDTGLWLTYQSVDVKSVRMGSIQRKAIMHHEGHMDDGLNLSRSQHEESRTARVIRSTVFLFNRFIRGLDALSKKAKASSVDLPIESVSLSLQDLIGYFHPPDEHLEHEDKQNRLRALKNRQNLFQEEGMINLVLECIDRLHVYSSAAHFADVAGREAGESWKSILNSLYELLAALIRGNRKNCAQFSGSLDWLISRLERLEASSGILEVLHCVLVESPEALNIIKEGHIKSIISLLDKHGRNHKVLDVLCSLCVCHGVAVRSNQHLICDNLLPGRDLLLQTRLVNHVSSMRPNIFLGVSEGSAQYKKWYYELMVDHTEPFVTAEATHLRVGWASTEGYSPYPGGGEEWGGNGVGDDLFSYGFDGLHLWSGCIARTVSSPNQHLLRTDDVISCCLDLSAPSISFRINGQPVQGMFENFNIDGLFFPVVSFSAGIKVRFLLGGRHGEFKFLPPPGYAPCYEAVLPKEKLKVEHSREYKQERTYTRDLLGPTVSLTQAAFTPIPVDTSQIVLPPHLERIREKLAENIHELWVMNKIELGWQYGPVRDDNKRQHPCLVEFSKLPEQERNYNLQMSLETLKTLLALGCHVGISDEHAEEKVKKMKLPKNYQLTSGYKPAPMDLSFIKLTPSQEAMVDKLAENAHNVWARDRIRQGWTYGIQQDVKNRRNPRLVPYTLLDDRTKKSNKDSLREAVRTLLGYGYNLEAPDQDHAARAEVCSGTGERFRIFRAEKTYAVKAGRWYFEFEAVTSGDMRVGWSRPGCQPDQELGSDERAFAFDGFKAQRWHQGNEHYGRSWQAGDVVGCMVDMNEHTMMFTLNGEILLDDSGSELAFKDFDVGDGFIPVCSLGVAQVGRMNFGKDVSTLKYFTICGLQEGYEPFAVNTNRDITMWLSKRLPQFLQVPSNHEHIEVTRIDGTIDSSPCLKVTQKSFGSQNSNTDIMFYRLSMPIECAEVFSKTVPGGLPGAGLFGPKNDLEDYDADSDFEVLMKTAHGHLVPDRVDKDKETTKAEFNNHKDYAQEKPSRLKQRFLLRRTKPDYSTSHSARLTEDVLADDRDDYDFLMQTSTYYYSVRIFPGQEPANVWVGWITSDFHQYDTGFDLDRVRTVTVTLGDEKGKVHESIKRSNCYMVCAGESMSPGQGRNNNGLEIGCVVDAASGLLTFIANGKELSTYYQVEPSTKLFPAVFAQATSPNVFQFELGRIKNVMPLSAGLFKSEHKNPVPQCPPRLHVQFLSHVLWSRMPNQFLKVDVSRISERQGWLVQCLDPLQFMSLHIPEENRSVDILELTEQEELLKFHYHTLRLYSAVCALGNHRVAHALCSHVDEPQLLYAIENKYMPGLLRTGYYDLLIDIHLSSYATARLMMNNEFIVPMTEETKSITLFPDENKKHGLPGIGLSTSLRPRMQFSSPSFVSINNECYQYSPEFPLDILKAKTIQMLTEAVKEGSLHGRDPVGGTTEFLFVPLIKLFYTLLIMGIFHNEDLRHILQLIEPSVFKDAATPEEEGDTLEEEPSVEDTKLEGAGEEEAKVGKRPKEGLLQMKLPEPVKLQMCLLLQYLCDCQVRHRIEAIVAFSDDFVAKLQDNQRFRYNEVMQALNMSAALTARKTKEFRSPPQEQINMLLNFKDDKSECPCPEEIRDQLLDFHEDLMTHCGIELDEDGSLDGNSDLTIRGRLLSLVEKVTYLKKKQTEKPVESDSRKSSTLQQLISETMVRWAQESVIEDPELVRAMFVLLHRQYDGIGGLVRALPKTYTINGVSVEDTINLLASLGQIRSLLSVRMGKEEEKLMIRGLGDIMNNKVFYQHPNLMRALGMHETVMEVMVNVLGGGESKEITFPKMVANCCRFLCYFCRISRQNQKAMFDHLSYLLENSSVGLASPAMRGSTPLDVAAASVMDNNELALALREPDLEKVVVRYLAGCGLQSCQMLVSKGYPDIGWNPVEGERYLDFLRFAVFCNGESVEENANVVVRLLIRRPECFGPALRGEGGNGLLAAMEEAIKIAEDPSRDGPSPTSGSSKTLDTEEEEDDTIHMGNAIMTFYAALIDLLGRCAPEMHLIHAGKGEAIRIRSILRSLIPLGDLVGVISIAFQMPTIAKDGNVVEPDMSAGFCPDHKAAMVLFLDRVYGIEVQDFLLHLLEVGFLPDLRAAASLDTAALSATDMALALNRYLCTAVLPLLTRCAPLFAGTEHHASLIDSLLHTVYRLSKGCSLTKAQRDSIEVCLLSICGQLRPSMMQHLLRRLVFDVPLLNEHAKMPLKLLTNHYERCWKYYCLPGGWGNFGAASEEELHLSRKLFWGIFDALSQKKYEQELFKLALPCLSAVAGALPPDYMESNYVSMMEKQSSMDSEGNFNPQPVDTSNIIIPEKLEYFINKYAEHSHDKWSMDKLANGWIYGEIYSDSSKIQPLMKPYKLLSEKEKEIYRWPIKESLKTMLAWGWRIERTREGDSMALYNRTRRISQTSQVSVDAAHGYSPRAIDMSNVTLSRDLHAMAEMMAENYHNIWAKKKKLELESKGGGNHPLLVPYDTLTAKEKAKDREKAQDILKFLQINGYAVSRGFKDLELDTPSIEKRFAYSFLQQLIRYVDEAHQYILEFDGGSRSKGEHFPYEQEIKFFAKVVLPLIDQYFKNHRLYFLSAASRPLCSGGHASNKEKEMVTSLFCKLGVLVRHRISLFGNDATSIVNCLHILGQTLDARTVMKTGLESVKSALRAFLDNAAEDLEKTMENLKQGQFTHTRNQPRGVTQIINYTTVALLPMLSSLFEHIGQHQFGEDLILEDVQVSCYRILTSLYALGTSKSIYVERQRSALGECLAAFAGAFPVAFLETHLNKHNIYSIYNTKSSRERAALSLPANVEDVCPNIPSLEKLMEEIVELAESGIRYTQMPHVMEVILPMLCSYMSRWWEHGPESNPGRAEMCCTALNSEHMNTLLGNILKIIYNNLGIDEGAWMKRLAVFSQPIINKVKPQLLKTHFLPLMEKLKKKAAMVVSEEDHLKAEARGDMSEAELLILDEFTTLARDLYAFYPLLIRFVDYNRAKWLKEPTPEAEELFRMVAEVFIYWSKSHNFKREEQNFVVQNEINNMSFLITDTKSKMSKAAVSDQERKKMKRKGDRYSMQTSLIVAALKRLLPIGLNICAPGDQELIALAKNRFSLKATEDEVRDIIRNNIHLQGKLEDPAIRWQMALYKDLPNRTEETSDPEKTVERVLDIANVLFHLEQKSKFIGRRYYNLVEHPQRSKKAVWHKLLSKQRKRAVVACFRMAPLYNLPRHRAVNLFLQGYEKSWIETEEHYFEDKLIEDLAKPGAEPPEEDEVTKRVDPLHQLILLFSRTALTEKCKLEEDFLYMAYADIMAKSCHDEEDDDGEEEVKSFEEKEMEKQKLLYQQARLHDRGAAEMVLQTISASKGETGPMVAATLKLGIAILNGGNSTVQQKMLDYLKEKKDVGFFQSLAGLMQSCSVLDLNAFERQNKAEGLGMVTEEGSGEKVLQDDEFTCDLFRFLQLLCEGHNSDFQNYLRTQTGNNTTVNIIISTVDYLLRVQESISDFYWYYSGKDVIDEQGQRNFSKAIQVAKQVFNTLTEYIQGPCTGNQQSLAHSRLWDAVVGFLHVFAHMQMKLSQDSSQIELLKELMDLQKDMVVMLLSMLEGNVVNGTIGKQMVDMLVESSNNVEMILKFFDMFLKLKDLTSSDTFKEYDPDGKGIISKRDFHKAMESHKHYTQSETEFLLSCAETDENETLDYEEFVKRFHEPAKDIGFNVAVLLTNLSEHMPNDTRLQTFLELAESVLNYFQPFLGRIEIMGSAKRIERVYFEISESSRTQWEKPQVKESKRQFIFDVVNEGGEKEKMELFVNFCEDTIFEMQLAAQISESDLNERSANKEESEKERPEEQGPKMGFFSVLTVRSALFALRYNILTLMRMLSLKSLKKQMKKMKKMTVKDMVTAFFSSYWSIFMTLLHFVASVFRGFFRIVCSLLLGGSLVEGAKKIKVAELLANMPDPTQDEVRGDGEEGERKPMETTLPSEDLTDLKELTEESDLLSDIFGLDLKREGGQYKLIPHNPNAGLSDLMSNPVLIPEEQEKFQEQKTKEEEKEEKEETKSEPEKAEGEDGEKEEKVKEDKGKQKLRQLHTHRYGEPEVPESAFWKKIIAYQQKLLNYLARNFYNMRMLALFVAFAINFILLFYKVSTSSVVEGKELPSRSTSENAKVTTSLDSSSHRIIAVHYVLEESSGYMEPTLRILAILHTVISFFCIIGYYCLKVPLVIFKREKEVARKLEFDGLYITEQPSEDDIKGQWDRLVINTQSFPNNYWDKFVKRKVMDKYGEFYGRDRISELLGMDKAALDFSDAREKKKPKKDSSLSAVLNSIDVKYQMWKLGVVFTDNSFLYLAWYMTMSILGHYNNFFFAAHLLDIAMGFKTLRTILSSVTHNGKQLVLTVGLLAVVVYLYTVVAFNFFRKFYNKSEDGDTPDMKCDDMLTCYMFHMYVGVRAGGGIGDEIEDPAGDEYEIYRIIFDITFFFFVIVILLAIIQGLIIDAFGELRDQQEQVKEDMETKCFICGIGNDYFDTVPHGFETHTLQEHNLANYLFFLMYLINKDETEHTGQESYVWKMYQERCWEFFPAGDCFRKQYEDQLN
Experimental: Ca^2+ uptake is stimulated by addition of an aliquot of Ca^2+. SERCA inhibition is induced by thapsigargin (5 uM).
The cell aggregate preparation is defrosted in 9× volumes of S2 with the addition of 2-3 aliquots of 100 μM CaCl2. The preparation is then aliquoted into the high format wells (96 or 384 well). […] The slow progressive increase in Ca^2+ concentration within the bath reflects Ca^2+ loss from the SR both via the ryanodine receptor and via independent leak pathways. […] As with the assay system above, two options for measurements are possible (i) follow the timecourse of the Ca^2+ release profile in detail by measuring every 1-2 s for 10 mins (ii) measuring the Ca^2+ concentration at a set time (e.g. 10 mins) after initiation of the reaction. Compounds that stimulate the SR Ca^2+ leak will cause the increase of Ca^2+ concentration to occur faster than control (vehicle). Conversely compounds that inhibit the SR Ca^2+ leak will slow the increase of Ca^2+ concentration.

C/C=C(/C)C(=O)O[C@H]1C(C)=C2[C@H]([C@@H]1OC(=O)CCCCCCC)[C@@](C)(OC(C)=O)C[C@H](OC(=O)CCC)[C@@]1(O)[C@H]2OC(=O)[C@@]1(C)O [thapsigargin]
effect on SERCA [1]: inhibition

β-escin
concentration from which trypan blue began to enter the myocytes [2]: 1 to 10 µg/mL
mean rod count excluding dye ([2]; at 0.1 μg/ml): approximately 90%
mean rod count excluding dye ([2]; at 1 μg/ml): approximately 110%
decrease of mean rod count, of the control value ([2]; at 10 μg/ml): approximately 35%
proportion of control population permeable to trypan blue ([2]; at 100 μg/ml): Approximately 100%
proportion of control population permeable to trypan blue ([2]; at 1000 μg/ml): Approximately 100%
proportion of control population permeable to trypan blue ([2]; at 10000 μg/ml): Approximately 100%
minimum effective concentration ([2]; trypan blue assay): 100 µg/mL
concentration at which permeabilisation (decrease in rod count in 5 mM Ca2+ EGTA) began ([3]; Ca2+-contraction assay): 10 µg/mL
concentration range over which permeabilisation was produced ([3]; Ca2+-contraction assay): 1 to 10000 µg/mL
minimum effective concentration ([3]; Ca2+-contraction assay, 5 mM Ca2+ EGTA): 100 µg/mL
proportion of cell population hyperpermeable / permeabilised ([3]; at 100 μg/ml): Approximately 100%
proportion of cell population hyperpermeable / permeabilised ([3]; at 1000 μg/ml): Approximately 100%
proportion of cell population hyperpermeable / permeabilised ([3]; at 10000 μg/ml): Approximately 100%
proportion of cardiac myocytes permeabilised [4]: about 10%

N.N.N.N.N.N.N.N.N.N.N.N.N.N.[Cl-].[Cl-].[Cl-].[Cl-].[Cl-].[Cl-].[O-2].[O-2].[Ru+3].[Ru+3].[Ru+4] [ruthenium red]
effect on caffeine-stimulated Ca2+ leak from SR [5]: blocked
